Source: patent US20230374067A1, “NOVEL PEPTOIDS AND USE THEREOF FOR PREVENTING OR TREATING CHRONIC PAIN” (Université Clermont Auvergne, priority 2020, published 2023)
Square brackets hold non-standard residues; d marks the D form. Peptide text beside a SMILES is read from it. * marks the point of attachment. Gly(N-CH2CH2OH) = O=C(O)CNCCO; Nleu = CC(C)CNCC(=O)O; Bz = O=C(c1ccccc1)*

Assays:
[1] = tested on: OIPN mice (oxaliplatin-induced neuropathy model mice); assay: Oxaliplatin-induced acute neuropathy in mice, paw immersion test (cold hypersensitivity); format: in vivo
Description: (§1) Immersion test: The tail or paw was immersed in a water bath set at 10° C. or 46° C. until shrinkage was observed (cut-off time: 30 s). The average of two separate determinations of withdrawal latency was calculated (Janssen, Niemegeers & Dony, 1963).
Oxaliplatin-induced acute neuropathy in mice: Mice were injected intraperitoneally (i.p.) with 6 mg/kg oxaliplatin dissolved in 5% glucose directly after the first behavioral assessment. At 90 h after drug administration, corresponding to the time required to reach peak hyperalgesia (Descoeur et al., 2011), a second assessment of cold sensitivity and mechanical sensitivity was performed.

[2] = target: T1, interaction between HCN and the TRIP8b tail (Homo sapiens, UniProt Q8IYB4); assay: Fluorescence polarization assay, disruption of TRIP8b-HCN interaction; format: binding; details: compared with NUCC5953
T1 sequence (Q8IYB4 265-626 limits assumed): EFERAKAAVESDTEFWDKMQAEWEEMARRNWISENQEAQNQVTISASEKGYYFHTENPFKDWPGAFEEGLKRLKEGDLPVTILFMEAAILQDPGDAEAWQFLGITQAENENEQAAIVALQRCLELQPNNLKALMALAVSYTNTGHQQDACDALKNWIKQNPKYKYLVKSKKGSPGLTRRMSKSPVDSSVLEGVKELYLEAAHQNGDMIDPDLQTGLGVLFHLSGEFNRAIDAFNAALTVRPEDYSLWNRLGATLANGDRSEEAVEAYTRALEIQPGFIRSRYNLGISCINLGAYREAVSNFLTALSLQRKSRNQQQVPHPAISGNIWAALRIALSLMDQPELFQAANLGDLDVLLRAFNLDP
Excerpt: Fluorescence polarization assay: a fluorescence polarization (FP) based assay was used to identify compounds capable of disrupting the interaction between HCN and the TRIP8b tail, as published (Han et al., 2015).

[3] = tested on: mice; assay: Rotarod test (locomotor activity); format: in vivo; details: administered subcutaneously (2.5, 5, or 10 mg/kg, s.c.)
Description: Rotarod Test: For the Rotarod test (Bioseb), the animals were first habituated to remain on the stationary cylinder for 10 min before switching to another 10 min with a rotational speed of 4 rpm. The animals were given the drug immediately after training and the test was performed 30 min later. The test consisted of measuring the latency to fall of the animals as the rotation increased from 4 to 40 rpm linearly over 5 min. The average of the two closest values over 3 trials was calculated.

[4] = tested on: PTX rats; assay: Paclitaxel-induced neuropathy in rats (mechanical thresholds, paw immersion); format: in vivo; details: rat model of paclitaxel-induced neuropathy, i.t., 0.2, 1 or 5 μg
Description: as §1
Paw pressure test in rats: Rats were subjected to the paw pressure test previously described by Randall and Selitto (1957). Nociceptive thresholds, expressed in grams, were measured with a Ugo Basile analgesic meter (Apelex, probe tip diameter 1 mm, weight 30 g) by applying increasing pressure to the right hind paw of the rats until a pain sign (vocalization threshold) was obtained (cut-off was 750 g). Before the treatments, the rats were habituated to the test by handling them without subjecting them to paw pressure. Then, after obtaining two consecutive stable vocalization threshold values, the treatment effects were evaluated after 15, 30, 45, 60, 90, and 120 min. Results are expressed as vocalization thresholds, in grams. […] Data were analyzed by a 2-way ANOVA followed by a Bonferroni test, when the time course of the effects was studied. A one-way ANOVA followed by a Student Newman-Keuls test was used to analyze the effect of the different treatments determined by the CSAs. The level of statistical significance was set at p<0.05. […]

[5] = tested on: neuropathic rats; assay: Spinal nerve ligation induced neuropathy in rats, paw immersion test; format: in vivo; details: neuropathy induced by traumatic nerve injury, intrathecal, 5 μg
Description: as §1
Spinal nerve ligation induced neuropathy in rats: According to the procedure of Kim and Chung (1992), rats were placed in the […] position and anesthetized with 10 mg/kg xylazine and 75 mg/kg ketamine (i.p). The fur on the left side of the spine was then shaved to expose the skin. The skin was cut parallel to the spine and the paravertebral muscles were separated. The L5 transverse apophysis was removed until the L5 spinal nerve was exposed. The L5 nerve was isolated and ligated with silk thread. Finally, the muscle and skin incisions were sutured and the wound was disinfected with iodophor and 75% ethyl alcohol. In the sham group, the rats underwent the same surgical procedure without the nerve ligation.

SMILES	analgesic effect ([1]; mouse, in vivo)	also measured
CC(C)C[C@H](NC(=O)CCN(CCO)C(=O)CN(CCO)C(=O)CN(CC(C)C)C(=O)c1ccc([N+](=O)[O-])cc1)C(=O)O [LF108]	demonstrated an analgesic effect	
Cc1ccc(C(=O)N(CC(=O)N(CCO)CC(=O)N(CCO)CCC(=O)N[C@@H](CC(C)C)C(=O)O)CC(C)C)cc1 [LF126]	demonstrated an analgesic effect	
CC(C)C[C@H](NC(=O)CCN(CC(N)=O)C(=O)CN(CCO)C(=O)CN(CC(C)C)C(=O)c1ccccc1)C(=O)O [LF176]	demonstrated an analgesic effect	
CC(C)C[C@H](NC(=O)CCN(CCO)C(=O)CN(CCO)C(=O)CN(CC(C)C)C(=O)c1ccc(C(F)(F)F)cc1)C(=O)O [LF188]	demonstrated an analgesic effect	
CCCCN(CC(=O)N(CCO)CC(=O)N(CCO)CCC(=O)N[C@@H](CC(C)C)C(=O)O)C(=O)c1ccccc1 [LF222]	demonstrated an analgesic effect	
CC(C)C[C@H](NC(=O)CCN(CCO)C(=O)CN(CCO)C(=O)CN(Cc1ccccc1)C(=O)C(C)C)C(=O)O [LF239]	demonstrated an analgesic effect	
CC(C)C[C@H](NC(=O)CCN(CCO)C(=O)CN(CCO)C(=O)CN(CC(C)C)C(=O)c1ccc(F)cc1)C(=O)O [LF261]	demonstrated an analgesic effect	
CC(C)C[C@H](NC(=O)CCN(CCO)C(=O)CN(CCO)C(=O)CN(C(=O)c1ccccc1)C(C)C)C(=O)O [LF295]	demonstrated an analgesic effect	
CC(C)C[C@H](NC(=O)CCN(CCO)C(=O)CN(CCO)C(=O)CN(CC(C)(C)C)C(=O)c1ccccc1)C(=O)O [LF306]	demonstrated an analgesic effect	
CC(C)C[C@H](NC(=O)CCN(CCO)C(=O)CN(CCN)C(=O)CN(CC(C)C)C(=O)c1ccccc1)C(=O)O [LF329]	demonstrated an analgesic effect	
CC(=O)N(CCO)CC(=O)N(CCO)CCC(=O)N[C@@H](CC(C)C)C(=O)O [LF369]		analgesic effect ([1]; OIPN mice, 5 μg, i.t.): demonstrated an analgesic effect
Cc1cccc(C(=O)N(CC(=O)N(CCO)CC(=O)N(CCO)CCC(=O)N[C@@H](CC(C)C)C(=O)O)CC(C)C)c1 [LF400]	demonstrated an analgesic effect	
CC(C)C[C@H](NC(=O)CCN(CCO)C(=O)CN(CCO)C(=O)CN(Cc1ccccc1)C(=O)c1ccccc1)C(=O)O [MP208]	demonstrated an analgesic effect	
CC(C)C[C@H](NC(=O)CCN(CCO)C(=O)CN(CCO)C(=O)CN(CC(C)C)C(=O)Cc1ccccc1)C(=O)O [MP341]		analgesic effect ([1]; OIPN mice, 10 mg/kg, s.c.): demonstrated an analgesic effect
CC(C)C[C@H](NC(=O)CCN(CCCO)C(=O)CN(CCO)C(=O)CN(CC(C)C)C(=O)c1ccccc1)C(=O)O [MP354]		analgesic effect ([1]; OIPN mice, 10 mg/kg, s.c.): demonstrated an analgesic effect
CC(C)C[C@H](NC(=O)CCN(CCO)C(=O)CN(CCCO)C(=O)CN(CC(C)C)C(=O)c1ccccc1)C(=O)O [MP376]		analgesic effect ([1]; OIPN mice, 10 mg/kg, s.c.): demonstrated an analgesic effect
CC(C)C[C@H](NC(=O)CN(CCO)C(=O)CN(CCO)C(=O)CN(CC(C)C)C(=O)c1ccccc1)C(=O)O [MP405] (Bz-[Nleu][Gly(N-CH2CH2OH)][Gly(N-CH2CH2OH)]L-OH)	demonstrated an analgesic effect	
CC(C)C[C@H](NC(=O)CCN(CCO)C(=O)CN(CCO)C(=O)CN(CC(C)C)C(=O)c1ccccc1)C(=O)O [YC55]		potency in disrupting the TRIP8b-HCN interaction [2]: equal potency to NUCC5953; dose-dependent analgesic effect / reversal of oxaliplatin-induced acute cold hypersensitivity ([1]; OIPN mice, i.t., 0.2, 1, 5 μg/mouse): dose-dependent analgesic effect; dose-dependent analgesic effect ([1]; OIPN mice, s.c., 2.5, 5 or 10 mg/kg): dose-dependent analgesic effect; alteration in locomotor activity [3]: No alteration in locomotor activity; dose-dependent analgesic effect [4]: dose-dependent analgesic effect; antihyperalgesic effect [5]: antihyperalgesic effect
